These molecules were tested on Human non-small cell lung cancer NCI-H358 (assay: Cell proliferation assay (CellTiter-Glu) in NCI-H358). Conditions: 5 days, NCI-H358 cells, cell viability by CellTiter-Glu, compound 0.3 nM-2 μM, medium and compound renewed after 3 days.
Assay type: cell-based
Description: Cell proliferation inhibition screening method was established by CellTier-Glu® test reagent from Promega.
Human non-small cell lung cancer NCI-H358 was cultured by RPMI-1640 (Gibco®) medium with 10% fetal bovine serum (Gibco®) at 37° C., 95% air and 5% CO2, in 25 cm^2 or 75 cm^2 plastic culture bottle ((Nunc®) and passaged 2-3 times a week.
The cells were seeded on the 96 well cell culture plate (Nunc®) at the density of 2*10^3/well, 90 μL/well, and cultured at 37° C., 95% air and 5% CO2. The compound to be tested was added 24 hours later: the compound was diluted 3 times with DMSO from the concentration of 2 mM compound (dissolved in DMSO). […] 10 μL of the compound diluted by culture medium was added into the culture plate seeded with cells. The final concentration of DMSO in cell culture medium was 0.1%, and the final concentration of test compound was 0.3 nM-2 μM. The cells were incubated at 37° C. for 3 days. The culture medium was substituted with 90 μL/well fresh complete medium. According to the above diluting method of compounds, the compound to be tested was added.
After 5 days, cell viability was tested by CellTiter-Glu (Promega) kit, and finally, the semi-inhibitory concentration of compounds on cell proliferation, i.e. IC50 was calculated by Prism program.

| Structure (SMILES) | IC50 [nM] |
| --- | --- |
| Cc1nc(N2CCC3(CC2)Cc2ccc(NS(C)(=O)=O)cc2[C@H]3N)c(CO)nc1-c1cccc(Cl)c1Cl [Compound 3, (S)—N-(1-amino-1′-(5-(2,3-dichlorophenyl)-3-(hydroxymethyl)-6-methylpyrazin-2-yl)-1,3-dihydrospiro[indene-2,4′-piperidin]-6-yl) methanesulfonamide] | 273 |
| Cc1nc(N2CCC3(CC2)Cc2ccc(C(C)(C)O)cc2[C@H]3N)c(CO)nc1-c1cccc(Cl)c1Cl [Compound 4, (S)-2-(1-amino-1′-(5-(2,3-dichlorophenyl)-3-(hydroxymethyl)-6-methylpyrazin-2-yl)-1,3-dihydrospiro[indene-2,4′-piperidin]-6-yl)propan-2-01] | 817 |
| Cc1nc(N2CCC3(CC2)Cc2ccc(C(N)=O)cc2[C@H]3N)c(CO)nc1-c1cccc(Cl)c1Cl [Compound 5, (S)-1-amino-1′-(5-(2,3-dichlorophenyl)-3-(hydroxymethyl)-6-methylpyrazin-2-yl)-1,3-dihydrospiro[indene-2,4′-piperidine]-6-carboxamide] | 98 |
| Cc1nc(N2CCC3(CC2)Cc2ccccc2[C@H]3N)c(C(N)=O)nc1-c1cccc(Cl)c1Cl [Compound 6, (S)-3-(1-amino-1,3-dihydrospiro[indene-2,4′-piperidin]-1′-yl)-6-(2,3-dichlorophenyl)-5-methylpyrazine-2-carboxamide] | > 1000 |
| Cc1nc(N2CCC3(CC2)Cc2ccccc2[C@H]3N)c(C#N)nc1-c1cccc(Cl)c1Cl [Compound 7, (S)-3-(1-amino-1,3-dihydrospiro[indene-2,4′-piperidin]-1′-yl)-6-(2,3-dichlorophenyl)-5-methylpyrazine-2-carbonitrile] | > 1000 |
| Cc1nc(N2CCC3(CC2)Cc2cccc(C#N)c2[C@H]3N)c(CO)nc1-c1cccc(Cl)c1Cl [Compound 8, (S)-1-amino-1′-(5-(2,3-dichlorophenyl)-3-(hydroxymethyl)-6-methylpyrazin-2-yl)-1,3-dihydrospiro[indene-2,4′-piperidine]-7-carbonitrile] | > 1000 |
| Cc1nc(N2CCC3(CC2)Cc2cc(NS(C)(=O)=O)ccc2[C@H]3N)c(CO)nc1-c1cccc(Cl)c1Cl [Compound 9, (S)—N-(1-amino-1′-(5-(2,3-dichlorophenyl)-3-(hydroxymethyl)-6-methylpyrazin-2-yl)-1,3-dihydrospiro[indene-2,4′-piperidin]-5-yl)methanesulfonamide] | > 1000 |
| Cc1nc(N2CCC3(CC2)Cc2ccccc2[C@H]3N)c(CO)nc1-c1ccnc(N)c1Cl [Compound 10, (S)-(3-(1-amino-1,3-dihydrospiro[indene-2,4′-piperidin]-1′-yl)-6-(2-amino-3-chloropyridin-4-yl)-5-methylpyrazin-2-yl)methanol] | > 1000 |
| N[C@@H]1c2ccccc2CC12CCN(c1ncc(-c3cccc(Cl)c3Cl)nc1CO)CC2 [Compound 11, (S)-(3-(1-amino-1,3-dihydrospiro[indene-2,4′-piperidin]-1′-yl)-6-(2,3-dichlorophenyl)pyrazin-2-yl)methanol] | 405 |
| Cc1nc(N2CCC3(CC2)Cc2ccccc2[C@H]3N)c(CO)nc1-c1cccnc1C(F)(F)F [Compound 12, (S)-(3-(1-amino-1,3-dihydrospiro[indene-2,4′-piperidin]-1′-yl)-5-methyl-6-(2-(trifluoromethyl)pyridin-3-yl)pyrazin-2-yl)methanol] | > 1000 |
| COc1ccc2c(c1)[C@@H](N)C1(CCN(c3nc(C)c(-c4cccc(Cl)c4Cl)nc3CO)CC1)C2 [Compound 14] | 56 |
| Cc1cccc(-c2nc(CO)c(N3CCC4(CC3)Cc3ccccc3[C@H]4N)nc2C)c1C [Compound 15] | 590 |
| Cc1nc(N2CCC3(CC2)Cc2ccccc2[C@H]3N)c(CO)nc1-c1ccccc1Br [Compound 16] | 261 |
| Cc1nc(N2CCC3(CC2)Cc2ccccc2[C@H]3N)c(CO)nc1-c1ccc2[nH]ncc2c1 [Compound 17] | 464 |
| Cc1nc(N2CCC3(CC2)Cc2ccccc2[C@H]3N)c(CO)nc1-c1ccc2c(cnn2C)c1 [Compound 18] | 630 |
| Cc1nc(N2CCC3(CC2)Cc2ccccc2[C@H]3N)c(CO)nc1-c1ccnc(Cl)c1Cl [Compound 19] | 29 |
| Cc1ccc2c(c1)[C@@H](N)C1(CCN(c3nc(C)c(-c4cccc(Cl)c4Cl)nc3CO)CC1)C2 [Compound 20] | 48 |
| Cc1nc(N2CCC3(CC2)Cc2ccccc2[C@H]3N)c(CO)nc1-c1ccc(Cl)c(Cl)c1 [Compound 22] | 195 |
| Cc1nc(N2CCC3(CC2)Cc2ccccc2[C@H]3N)c(CO)nc1-c1ccccc1Cl [Compound 23] | 479 |
| Cc1nc(N2CCC3(CC2)Cc2ccccc2[C@@H]3N)c(CO)nc1-c1cccc(Cl)c1Cl [Compound 24] | > 1000 |

| Structure (SMILES) | IC50 [nM] |
| --- | --- |
| Cc1cccc(-c2nc(CO)c(N3CCC4(CC3)Cc3ccccc3[C@H]4N)nc2C)c1Cl [Compound 25] | 37 |
| Cc1nc(N2CCC3(CC2)Cc2ccccc2[C@H]3N)c(CO)nc1-c1cc2ccccc2[nH]1 [Compound 26] | 449 |
| Cc1nc(N2CCC3(CC2)Cc2cc(C(N)=O)ccc2[C@H]3N)c(CO)nc1-c1cccc(Cl)c1Cl [Compound 27] | > 1000 |
| Cc1nc(N2CCC3(CC2)Cc2cccc(Br)c2[C@H]3N)c(CO)nc1-c1cccc(Cl)c1Cl [Compound 28] | > 1000 |
| Cc1nc(N2CCC3(CC2)Cc2ccc(N=S(C)(C)=O)cc2[C@H]3N)c(CO)nc1-c1cccc(Cl)c1Cl [Compound 29] | 199 |
| Cc1nc(N2CCC3(CC2)Cc2c(C#N)cccc2[C@H]3N)c(CO)nc1-c1cccc(Cl)c1Cl [Compound 30] | 207 |
| Cc1nc(N2CCC3(CC2)Cc2ccc(S(C)(=O)=O)cc2[C@H]3N)c(CO)nc1-c1cccc(Cl)c1Cl [Compound 31] | 249 |
| Cc1nc(N2CCC3(CC2)Cc2ccc(Br)cc2[C@H]3N)c(CO)nc1-c1cccc(Cl)c1Cl [Compound 32] | 29 |
| Cc1nc(N2CCC3(CC2)Cc2ccc(Cl)cc2[C@H]3N)c(CO)nc1-c1cccc(Cl)c1Cl [Compound 33] | 17 |
| Cc1nc(N2CCC3(CC2)Cc2ccc(C(F)(F)F)cc2[C@H]3N)c(CO)nc1-c1cccc(Cl)c1Cl [Compound 34] | 90 |
| Cc1nc(N2CCC3(CC2)Cc2cccnc2[C@H]3N)c(CO)nc1-c1cccc(Cl)c1Cl [Compound 35] | 101 |
| Cc1nc(N2CCC3(CC2)Cc2ccc(OC(F)(F)F)cc2[C@H]3N)c(CO)nc1-c1cccc(Cl)c1Cl [Compound 36] | 31 |
| Cc1nc(N2CCC3(CC2)Cc2ccncc2[C@H]3N)c(CO)nc1-c1cccc(Cl)c1Cl [Compound 37] | 75 |
| Cc1nc(N2CCC3(CC2)Cc2cnccc2[C@H]3N)c(CO)nc1-c1cccc(Cl)c1Cl [Compound 38] | > 1000 |
| Cc1cnc2c(c1)[C@@H](N)C1(CCN(c3nc(C)c(-c4cccc(Cl)c4Cl)nc3CO)CC1)C2 [Compound 39] | 11 |
| Cc1nc(N2CCC3(CC2)Cc2ncccc2[C@H]3N)c(CO)nc1-c1ccnc(Cl)c1Cl [Compound 40] | 30 |
| COc1ccc(-c2nc(CO)c(N3CCC4(CC3)Cc3ccccc3[C@H]4N)nc2C)c(Cl)c1 [Compound 41] | 97 |
| Cc1nc(N2CCC3(CC2)Cc2ccccc2[C@H]3N)c(CO)nc1-c1ccc(S(C)(=O)=O)cc1Cl [Compound 42] | 732 |
| Cc1nc(N2CCC3(CC2)Cc2ccccc2[C@H]3N)c(CO)nc1-c1cncc(Cl)c1Cl [Compound 43] | 225 |
